According to ChEMBL document CHEMBL1141026, “Synthesis, in vitro antitrypanosomal and antibacterial activity of phenoxy, phenylthio or benzyloxy substituted quinolones” (Bioorg Med Chem Lett, 2009):
Converted amounts (≈) assume the structure as drawn. Blank lines part the entries; values can stand above or below the molecule they belong to.

Key:
[1] = tested on: Enterococcus faecalis; assay: Antibacterial activity against Enterococcus faecalis after 24 hrs by agar dilution method; format: functional
[2] = tested on: Morganella morganii; assay: Antibacterial activity against Morganella morganii after 24 hrs by agar dilution method; format: functional
[3] = tested on: Salmonella typhimurium; assay: Antibacterial activity against Salmonella Typhimurium after 24 hrs by agar dilution method; format: functional, Salmonella enterica subsp. enterica serovar Typhimurium; conditions: Salmonella enterica
[4] = tested on: Klebsiella pneumoniae; assay: Antibacterial activity against Klebsiella pneumoniae after 24 hrs by agar dilution method; format: functional
[5] = tested on: Serratia marcescens; assay: Antibacterial activity against Serratia marcescens after 24 hrs by agar dilution method; format: functional
[6] = tested on: Shigella sonnei; assay: Antibacterial activity against Shigella sonnei after 24 hrs by agar dilution method; format: functional
[7] = tested on: Streptococcus pneumoniae; assay: Antibacterial activity against Streptococcus pneumoniae after 24 hrs by agar dilution method; format: functional
[8] = tested on: Salmonella enterica subsp. enterica; assay: Antibacterial activity against Salmonella enteritidis after 24 hrs by agar dilution method; format: functional, Salmonella enterica subsp. enterica serovar Enteritidis
[9] = tested on: Shigella boydii; assay: Antibacterial activity against Shigella boydii after 24 hrs by agar dilution method; format: functional
[10] = tested on: Staphylococcus epidermidis; assay: Antibacterial activity against Staphylococcus epidermidis after 24 hrs by agar dilution method; format: functional
[11] = tested on: Shigella flexneri; assay: Antibacterial activity against Shigella flexneri after 24 hrs by agar dilution method; format: functional
[12] = tested on: Aeromonas hydrophila; assay: Antibacterial activity against Aeromonas hydrophila after 24 hrs by agar dilution method; format: functional
[13] = tested on: Pseudomonas aeruginosa; assay: Antibacterial activity against Pseudomonas aeruginosa after 24 hrs by agar dilution method; format: functional
[14] = tested on: Proteus mirabilis; assay: Antibacterial activity against Proteus mirabilis after 24 hrs by agar dilution method; format: functional
[15] = tested on: Staphylococcus; assay: Antibacterial activity against Staphylococcus albus after 24 hrs by agar dilution method; format: functional
[16] = tested on: Streptococcus; assay: Antibacterial activity against gamma-streptococcus after 24 hrs by agar dilution method; format: functional
[17] = tested on: Proteus vulgaris; assay: Antibacterial activity against Proteus vulgaris after 24 hrs by agar dilution method; format: functional
[18] = tested on: Escherichia coli; assay: Antibacterial activity against Escherichia coli after 24 hrs by agar dilution method; format: functional
[19] = tested on: Citrobacter freundii; assay: Antibacterial activity against Citrobacter freundii after 24 hrs by agar dilution method; format: functional
[20] = tested on: Staphylococcus aureus; assay: Antibacterial activity against Staphylococcus aureus after 24 hrs by agar dilution method; format: functional
[21] = tested on: Trypanosoma cruzi; assay: Antitrypanosomal activity against trypomastigotes of Trypanosoma cruzi Tulahuen C2C4 containing lacZ gene in rat L6 cells after 4 days; format: functional, organism-based; conditions: L6, 96 h
[22] = tested on: Trypanosoma cruzi; assay: Antitrypanosomal activity against Trypanosoma cruzi amastigotes at 250 uM

Compound: CCn1cc(C(=O)O)c(=O)c2cc(F)c(N3CCNC(C)C3)c(F)c21 (stereo not given) [LOMEFLOXACIN]
MIC [1]: 25 µg/mL (≈ 71.2 µM)
MIC [2]: 0.195 µg/mL (≈ 0.555 µM)
MIC [3]: 0.195 µg/mL (≈ 0.555 µM)
MIC [4]: 0.098 µg/mL (≈ 0.279 µM)
MIC [5]: 0.195 µg/mL (≈ 0.555 µM)
MIC [6]: 0.098 µg/mL (≈ 0.279 µM)
MIC [7]: 0.195 µg/mL (≈ 0.555 µM)
MIC [8]: 0.098 µg/mL (≈ 0.279 µM)
MIC [9]: 0.098 µg/mL (≈ 0.279 µM)
MIC [10]: 0.78 µg/mL (≈ 2.22 µM)
MIC [11]: 0.78 µg/mL (≈ 2.22 µM)
MIC [12]: 6.25 µg/mL (≈ 17.8 µM)
MIC [13]: 3.13 µg/mL (≈ 8.91 µM)
MIC [14]: 0.39 µg/mL (≈ 1.11 µM)
MIC [15]: 3.13 µg/mL (≈ 8.91 µM)
MIC [16]: 6.25 µg/mL (≈ 17.8 µM)
MIC [17]: 0.78 µg/mL (≈ 2.22 µM)
MIC [18]: 0.098 µg/mL (≈ 0.279 µM)
MIC [19]: 0.098 µg/mL (≈ 0.279 µM)
MIC [20]: 0.78 µg/mL (≈ 2.22 µM)

Compound: C=Cn1cc(C(=O)O)c(=O)c2cc(F)c(OCc3ccccc3)c(OCc3ccccc3)c21
IC50 [21]: 6.2 µg/mL (≈ 13.9 µM)

Compound: CCn1cc(C(=O)O)c(=O)c2cc(F)c(OCc3ccccc3)c(OCc3ccccc3)c21
IC50 [21]: 1.3 µg/mL (≈ 2.91 µM)

Compound: CCn1cc(C(=O)O)c(=O)c2cc(F)c(Oc3ccc(C)cc3)c(F)c21
MIC [1]: > 25 µg/mL
MIC [2]: 25 µg/mL (≈ 69.6 µM)
MIC [3]: 25 µg/mL (≈ 69.6 µM)
MIC [4]: 6.25 µg/mL (≈ 17.4 µM)
MIC [5]: > 25 µg/mL
MIC [6]: 12.5 µg/mL (≈ 34.8 µM)
IC50 [21]: 18.3 µg/mL (≈ 50.9 µM)
MIC [7]: 0.39 µg/mL (≈ 1.09 µM)
MIC [8]: 25 µg/mL (≈ 69.6 µM)
MIC [9]: 6.25 µg/mL (≈ 17.4 µM)
MIC [10]: 6.25 µg/mL (≈ 17.4 µM)
MIC [11]: > 25 µg/mL
MIC [12]: 25 µg/mL (≈ 69.6 µM)
MIC [13]: > 25 µg/mL
MIC [14]: 25 µg/mL (≈ 69.6 µM)
MIC [15]: 12.5 µg/mL (≈ 34.8 µM)
MIC [16]: > 25 µg/mL
MIC [17]: > 25 µg/mL
MIC [18]: 25 µg/mL (≈ 69.6 µM)
MIC [19]: 12.5 µg/mL (≈ 34.8 µM)
MIC [20]: 0.78 µg/mL (≈ 2.17 µM)

Compound: CCn1cc(C(=O)O)c(=O)c2cc(F)c(Sc3ccc(F)cc3)c(Sc3ccc(F)cc3)c21
IC50 [21]: 6.2 µg/mL (≈ 12.7 µM)

Compound: CCn1cc(C(=O)O)c(=O)c2cc(F)c(Oc3ccc(C)cc3)c(Oc3ccc(C)cc3)c21
IC50 [21]: 19.4 µg/mL (≈ 43.4 µM)

Compound: CCOC(=O)c1cn(CC)c2c(OCc3ccccc3)c(OCc3ccccc3)c(F)cc2c1=O
IC50 [21]: 1.7 µg/mL (≈ 3.58 µM)

Compound: CCn1cc(C(=O)OC)c(=O)c2cc(F)c(Oc3ccccc3)c(Oc3ccccc3)c21
IC50 [21]: > 90 µg/mL

Compound: O=C(O)c1cn(C2CC2)c2cc(N3CCNCC3)c(F)cc2c1=O [CIPROFLOXACIN]
Activity [22]: 26%

Now from value to molecule:

MIC [1]: 12.5 µg/mL (≈ 33.7 µM)
MIC [2]: 6.25 µg/mL (≈ 16.8 µM)
MIC [3]: 1.56 µg/mL (≈ 4.2 µM)
MIC [4]: 0.78 µg/mL (≈ 2.1 µM)
MIC [5]: 6.25 µg/mL (≈ 16.8 µM)
MIC [6]: 1.56 µg/mL (≈ 4.2 µM)
IC50 [21]: > 90 µg/mL
MIC [7]: 1.56 µg/mL (≈ 4.2 µM)
MIC [8]: 3.13 µg/mL (≈ 8.43 µM)
MIC [9]: 1.56 µg/mL (≈ 4.2 µM)
MIC [10]: 1.56 µg/mL (≈ 4.2 µM)
MIC [11]: > 25 µg/mL
MIC [12]: 3.13 µg/mL (≈ 8.43 µM)
MIC [13]: 6.25 µg/mL (≈ 16.8 µM)
MIC [14]: 6.25 µg/mL (≈ 16.8 µM)
MIC [15]: 6.25 µg/mL (≈ 16.8 µM)
MIC [16]: 6.25 µg/mL (≈ 16.8 µM)
MIC [17]: 6.25 µg/mL (≈ 16.8 µM)
MIC [18]: 1.56 µg/mL (≈ 4.2 µM)
MIC [19]: 1.56 µg/mL (≈ 4.2 µM)
MIC [20]: 1.56 µg/mL (≈ 4.2 µM)
Compound: O=C(O)c1cn(C2CC2)c2c(F)c(OCc3ccccc3)c(F)cc2c1=O

IC50 [21]: > 90 µg/mL
Compound: CCn1cc(C(N)=O)c(=O)c2cc(F)c(Sc3ccccc3)c(Sc3ccccc3)c21

IC50 [21]: 17.8 µg/mL (≈ 38.4 µM)
Compound: O=C(O)c1cn(C2CC2)c2c(Sc3ccccc3)c(Sc3ccccc3)c(F)cc2c1=O

IC50 [21]: 52.7 µg/mL (≈ 110 µM)
Compound: CCn1cc(C(=O)O)c(=O)c2cc(F)c(Sc3ccc(C)cc3)c(Sc3ccc(C)cc3)c21

IC50 [21]: 6 µg/mL (≈ 12.5 µM)
Compound: CCOC(=O)c1cn(CC)c2c(Sc3ccccc3)c(Sc3ccccc3)c(F)cc2c1=O

IC50 [21]: 16.3 µg/mL (≈ 31.3 µM)
Compound: CCn1cc(C(=O)O)c(=O)c2cc(F)c(Sc3ccc(Cl)cc3)c(Sc3ccc(Cl)cc3)c21

MIC [1]: > 25 µg/mL
MIC [2]: > 25 µg/mL
MIC [3]: > 25 µg/mL
MIC [4]: 12.5 µg/mL (≈ 34.6 µM)
MIC [5]: > 25 µg/mL
MIC [6]: 12.5 µg/mL (≈ 34.6 µM)
IC50 [21]: 34.6 µg/mL (≈ 95.7 µM)
MIC [7]: 0.78 µg/mL (≈ 2.16 µM)
MIC [8]: > 25 µg/mL
MIC [9]: 12.5 µg/mL (≈ 34.6 µM)
MIC [10]: 3.13 µg/mL (≈ 8.66 µM)
MIC [11]: > 25 µg/mL
MIC [12]: > 25 µg/mL
MIC [13]: > 25 µg/mL
MIC [14]: > 25 µg/mL
MIC [15]: > 25 µg/mL
MIC [16]: > 25 µg/mL
MIC [17]: > 25 µg/mL
MIC [18]: > 25 µg/mL
MIC [19]: 12.5 µg/mL (≈ 34.6 µM)
MIC [20]: 3.13 µg/mL (≈ 8.66 µM)
Compound: CCn1cc(C(=O)O)c(=O)c2cc(F)c(Sc3ccccc3)c(F)c21
